The RepoRT retention time repository (doi:10.1021/acs.analchem.1c00972)

Columns and labels:
[1] = RP, Waters ACQUITY UPLC BEH C18, 100 × 1 mm, 1.7 µm, 50 °C, 0.3 mL/min, estimated dead time 0.17 min; A: water + 10 mM ammonium bicarbonate; B: 10% water + 90% methanol + 10 mM ammonium bicarbonate; gradient (min/%B) 0/0 15/100 21/100 22/0 30/0; conditions: stereoisomer not certain
[2] = RP, Waters ACQUITY UPLC BEH C18, 100 × 1 mm, 1.7 µm, 50 °C, 0.3 mL/min, estimated dead time 0.17 min; A: water + 0.1% formic acid + 20 mM ammonium formate; B: methanol + 0.1% formic acid + 20 mM ammonium formate; gradient (min/%B) 0/0 15/100 21/100 22/0 30/0; conditions: stereoisomer not certain

SMILES	LC retention time [1] [min]	LC retention time [2] [min]
CC(=O)C1(O)CCC2C3CCC4=CC(=O)CCC4(C)C3CCC21C (stereo not drawn) [17alpha-Hydroxyprogesterone]	14.8	14.5
CCOC(=O)C1(c2ccccc2)CCN(C)CC1 [Meperidine]	14.2	9.63
CC(C)CCCCCCCOC(=O)c1ccccc1C(=O)OCCCCCCCC(C)C [Di-iso-decylphthalate]	21.3	20
NC(=NCCCCCCN=C(N)N=C(N)Nc1ccc(Cl)cc1)N=C(N)Nc1ccc(Cl)cc1 [Chlorohexidine]	6.38	12.2
O=c1c2cc(F)ccc2nc(-n2cncn2)n1-c1ccc(Cl)cc1Cl [Fluquinconazole]	15	14.7
COC1CC(OC2CCC3(C)C(CCC4C3CCC3(C)C(C5=CC(=O)OC5)C(OC(C)=O)CC43O)C2)OC(C)C1O (centres undefined) [Oleandrin]	14.7	14.4
CC1CCCC(=O)CCCC=Cc2cc(O)cc(O)c2C(=O)O1 (centres undefined) [Zearalenone]	14.1	14.4
CCCN(CCOc1c(Cl)cc(Cl)cc1Cl)C(N)=O	16.2	15.9
CC(C)C1(C)N=C(c2ncccc2C(=O)O)NC1=O (centres undefined) [Imazapyr]	5.24	8.89
COc1ccc(C2Sc3ccccc3N(CCN(C)C)C(=O)C2OC(C)=O)cc1 (centres undefined) [Diltiazem]	15.5	11.8
CN1COCN(Cc2cnc(Cl)s2)C1=O	9.5	9.42
CN1CCCC(n2nc(Cc3ccc(Cl)cc3)c3ccccc3c2=O)CC1 (centres undefined) [Azelastine]	16.3	12.9
N#Cc1c(Cl)c(Cl)c(O)c(C(N)=O)c1Cl	8.11	10
COc1ccc(C(=CC(=O)N2CCOCC2)c2ccc(Cl)cc2)cc1OC [Dimethomorph]	14.7	14.4
O=c1cccc2n1CC1CNCC2C1 (centres undefined) [Cytisin]	7.53	2.31
CC=C(C)C(=O)OC1CCN2CC=C(COC(=O)C(O)(C(C)O)C(C)(C)O)C12 (centres undefined) [Echimidine]	13.2	9.4
CC=C1CC(C)C(C)(O)C(=O)OCC2=CC[N+]3([O-])CCC(OC1=O)C23 (centres undefined) [Senecionine N-oxide]	9.78	8.82
COC(C)C(O)(C(=O)OCC1=CC[N+]2([O-])CCC(O)C12)C(C)C (centres undefined) [Heliotrine N-oxide]	8.96	8.36
COc1ccc(Cc2nccc3cc(OC)c(OC)cc23)cc1OC [Papaverin]	13.3	9.77
CC(C)(C)c1cccc(C(C)(C)C)c1O [2,6-di-tert-Butylphenol]	16.6	16.2
CNC(=O)Oc1cccc2c1OC(C)(C)C2O (centres undefined) [3-Hydroxycarbofuran]	9.47	9.35

SMILES	LC retention time [1] [min]	LC retention time [2] [min]
Nc1c(Cl)c(Cl)nc(C(=O)O)c1Cl [Picloram]	4.43	7.28
COC(C)C(O)(C(=O)OCC1=CCN2CCC(O)C12)C(C)(C)O (centres undefined) [Europine]	9.86	6.72
O=C1C=CCC2C3CCCN4CCCC(CN12)C34 (centres undefined) [Sophocarpine]	12.8	5.39
CCOP(=S)(OCC)Oc1cc(C)nc(C(C)C)n1 [Diazinon]	16	15.7
CNC(=O)Oc1ccccc1C(C)C [Isoprocarb]	13.1	12.9
CCCCC(CC)COC(=O)CC(C(=O)OCC(CC)CCCC)S(=O)(=O)O (centres undefined) [Dioctylsulfosuccinate]	17.3	17
O=C(OCc1ccccc1)c1ccccc1C(=O)OCc1ccccc1 [Dibenzylphthalate]	16.7	16.3
CON=C(C(=O)O)c1ccccc1CON=C(C)c1cccc(C(F)(F)F)c1	14.5	15.6
Cc1nc2ccccc2s1 [2-Methylbenzothiazole]	12.6	12.3
Nc1ncnc2nc[nH]c12 [Adenine]	2.55	5.28
CCOc1cc(C(C)(C)C)ccc1C1COC(c2c(F)cccc2F)=N1 (centres undefined) [Etoxazole]	17.8	17.4
NC(=O)c1c(Cl)cccc1Cl [2,6-Dichlorobenzamide]	7.59	7.57
COc1cc(OC)n2nc(S(=O)(=O)Nc3c(Cl)ccc(C)c3Cl)nc2n1 [Metosulam]	10.9	12
C=C(C)C1C2OC(=O)C1C1(O)CC3OC34C(=O)OC2C14C (centres undefined) [Picrotoxinin]	9.36	9.25
CS(=O)(=O)c1ccc(C(=O)C2C(=O)CCCC2=O)c(Cl)c1COCC(F)(F)F [Tembotrione]	15.6	13.4
CC(=O)C1(O)CCC2C3C=C(Cl)C4=CC(=O)C5CC5C4(C)C3CCC21C (centres undefined) [Cyproterone]	14.9	14.6
Nc1ccc(Cc2ccc(N)cc2)cc1 [4,4'-Methylenedianiline]	10.7	5.44
CCc1cccc(CC)c1N(COC)C(=O)C(=O)O [Alachlor tert-oxanilic acid (OA)]	15.9	15.5
Cc1cc(=O)oc2cc(N)ccc12 [7-Amino-4-methylcoumarin]	9.4	9.29
NC(=O)c1ccc(N)cc1 [4-Aminobenzamide]	2.63	2.09

The next lines start with the values.

LC retention time [1] [min]	LC retention time [2] [min]	SMILES
14.9	9.7	CN1CCN2c3ncccc3Cc3ccccc3C2C1 (centres undefined) [Mirtazapine]
6.19	8.86	COc1ncnc(NS(=O)(=O)c2ccc(N)cc2)c1OC [Sulfadoxine]
14.3	14	O=C(C1CCCCC1)N1CC(=O)N2CCc3ccccc3C2C1 (centres undefined) [Praziquantel]
15.9	12.4	COc1ccc(CCN(C)CCCC(C#N)(c2ccc(OC)c(OC)c2)C(C)C)cc1OC (centres undefined) [Verapamil]
9.58	9.47	OC(Cn1cncn1)(Cn1cncn1)c1ccc(F)cc1F [fluconazole]
8.22	9.59	COc1cc2ccc(=O)oc2c(O)c1OC [Fraxidin]
12.9	14.1	[NH3+][C@@H](Cc1cc(I)c(Oc2cc(I)c(O)c(I)c2)c(I)c1)C(=O)[O-] [L-thyroxine]
10.2	14.2	CCCC(CCC)C(=O)O [Valproic acid]
14.2	13.1	COCCCNc1nc(NC(C)C)nc(SC)n1 [Methoprothryne]
17	16.6	Cc1cccc(N(C)C(=S)Oc2ccc3ccccc3c2)c1 [Tolnaftate]
10.4	11.5	COc1ccc(CCC(=O)c2c(O)cc(OC3OC(CO)C(O)C(O)C3OC3OC(C)C(O)C(O)C3O)cc2O)cc1O (centres undefined) [Neohesperidin DC]
17.2	16.8	CCC(C)C(=O)OC1CC(C)C=C2C=CC(C)C(CCC3CC(O)CC(=O)O3)C21 (centres undefined) [Lovastatin]
15.5	15.2	CC(=O)C1(O)CCC2C3CC(C)C4=CC(=O)CCC4(C)C3CCC21C (centres undefined) [Medroxyprogesterone]
5.43	2.01	CNCC(O)c1cccc(O)c1 (centres undefined) [Phenylephrine]
16.5	16.1	CCCCCCCCCC(=O)N(C)C [N,N-Dimethyldecan-1-amide]
12.9	12.6	CCc1cccc(C)c1N1C(=O)COCC1C (centres undefined) [Metolachlor-morpholinone]
10.8	6.49	CCN(CC)CCNC(=O)c1cc(S(C)(=O)=O)ccc1OC [Tiapride]
17.1	12.1	CCN(CCCCOC(=O)c1ccc(OC)c(OC)c1)C(C)Cc1ccc(OC)cc1 (centres undefined) [Mebeverine]
11	13.8	COc1ccc2cc(C(C)C(=O)O)ccc2c1 (centres undefined) [Naproxen]
6.8	9.67	O=c1c(OC2OC(CO)C(O)C(O)C2O)c(-c2ccc(O)c(O)c2)oc2cc(O)cc(O)c12 (centres undefined) [Hyperoside]
11.6	12.7	Cc1onc(-c2ccccc2)c1C(=O)NC1C(=O)N2C1SC(C)(C)C2C(=O)O (centres undefined) [Oxacillin]
8.96	8.9	Cc1cc(=O)n(-c2ccccc2)n1C [Phenazone]
13.5	13.2	CC1CC2C3CC(F)C4=CC(=O)C=CC4(C)C3C(O)CC2(C)C1(O)C(=O)CO (centres undefined) [Paramethasone]
12.9	12.5	COC(=O)Nc1nc2ccc(C(=O)c3ccccc3)cc2[nH]1 [Mebendazole]
12	9.91	CCNc1nc(NC(C)CC)[nH]c(=O)n1 (centres undefined) [Sebuthylazine-2-hydroxy]
15.4	10	CC1CCN(CCCC(=O)c2ccc(F)cc2)CC1 [Melperon]
